Test results from patent US20030166687A1, “ALPHA-HYDROXY,-AMINO AND -FLUORO DERIVATIVES OF BETA-SULPHONYL HYDROXAMIC ACIDS AS MATRIX METALLOPROTEINASES INHIBITORS” (priority 2000, published 2003).
pKi: −log10 of the molar value.

What follows are compounds tested against gelatinase (assay: MMP particle concentration fluorescence assay, gelatinase). Settings: in vitro; 15 min preincubation, 1-3 hours with substrate at room temperature, pH 7.5.
Assay type: biochemical
Procedure: Inhibitory activity is evaluated in one or more of the MMP enzymes (stromelysin, gelatinase, and collagenase) in vitro using particle concentration fluorescence assay. An inhibitor binds to MMP enzymes which prevents the degradation of a substrate by stromelysin, gelatinase, or collagenase. The substrate has attached to it a fluorescein and a biotin moiety. The intact substrate then binds to an avidin-coated particle via the biotin moiety. Once the particle is washed and dried, a fluorescent signal is generated since the fluorescent group is attached to the particle. Without an inhibitor present, the substrate is degraded by MMP enzymes and the fluorescein group is removed, therefore, no fluorescent signal can be detected. Testing compounds are dissolved in DMSO to the desired concentration, then the solutions are diluted to 1:5 with MMP buffer (50 mM Tris-HCl, pH 7.5; 150 mM NaCl; 0.02% NaN3). Serial two-fold dilutions of each compound are prepared. A concentrated, activated enzyme solution is transferred into each plate of the testing compounds, and the mixture is incubated at room temperature for 15 minutes. Thawed MMP substrate is then added into all plates, and the plates are incubated in the dark for 1-3 hours at room temperature. At this point, the substrate mixture is mixed with 0.1% avidin-coated polystyrene particles. After 15 minutes, the fluorescence values are measured following filtration and washing of the beads. Ki values are then calculated.

pKi | Structure (SMILES)
7.15 | COc1ccc(S(=O)(=O)CC(O)(CNC(=O)C2CCCC2)C(=O)NO)cc1 (stereo not drawn) [Example 6, N-hydroxy-2-hydroxy-2-[(4-methoxybenzenesulfonyl)methyl]-3-[N-(cyclopentylcarbonyl)amino]-propionamide]
7.51 | COc1ccc(S(=O)(=O)CC(O)(CS(=O)(=O)c2ccc(F)cc2)C(=O)NO)cc1 (stereo not drawn) [Example 2, N-hydroxy-2-hydroxy-2-[(4-methoxybenzenesulfonyl)methyl]-3-(4-fluorobenzenesulfonyl)-propionamide]
7.64 | COc1ccc(S(=O)(=O)CC(O)(CNC(=O)c2ccccc2)C(=O)NO)cc1 (stereo not drawn) [Example 5, N-hydroxy-2-hydroxy-2-[(4-methoxybenzenesulfonyl)methyl]-3-(N-benzenecarbonylamino)-propionamide]
8.07 | COc1ccc(S(=O)(=O)CC(O)(CS(=O)(=O)c2ccc(-c3ccccc3)cc2)C(=O)NO)cc1 (single isomer, unassigned) [1, Enantiomer A]
7.89 | CCCCc1ccc(S(=O)(=O)CC(O)(CS(=O)(=O)c2ccc(OC)cc2)C(=O)NO)cc1 (stereo not drawn) [Example 3, N-hydroxy-2-hydroxy-2-[(4-methoxybenzenesulfonyl)methyl]-3-(4-n-butylbenzenesulfonyl)-propionamide]
9.47 | COc1ccc(S(=O)(=O)CC(O)(CS(=O)(=O)c2ccc(-c3ccccc3)cc2)C(=O)NO)cc1 (single isomer, unassigned) [1, Enantiomer B]
8.12 | COc1ccc(S(=O)(=O)CC(O)(CS(=O)(=O)c2ccc(OC)cc2)C(=O)NO)cc1 [Example 4, N-hydroxy-2-hydroxy-2-[(4-methoxybenzenesulfonyl)methyl]-3-(4-methoxybenzenesulfonyl)-propionamide]
7.77 | COc1ccc(C(=O)NCC(O)(CS(=O)(=O)c2ccc(OC)cc2)C(=O)NO)cc1 (stereo not drawn) [Example 7, N-hydroxy-2-hydroxy-2-[(4-methoxybenzenesulfonyl)methyl]-3-(N-(4-methoxybenzenecarbonyl)amino)-propionamide]
8.72 | COc1ccc(S(=O)(=O)CC(O)(CS(=O)(=O)c2ccc(-c3ccccc3)cc2)C(=O)NO)cc1 (racemic) [Example 1, N-hydroxy-2-hydroxy-2-[(4-methoxybenzenesulfonyl)methyl]-3-(4-phenylbenzenesulfonyl)-propionamide]
